# PubChem BioAssay AID844 (SRMLSC, 2007)
# The source made the active and inactive calls. No rule for the calls is given here.
# System: MRP1 cells, doxorubicin viability shift, 10 uM compound
# Assay: doxorubicin EC50 increase in MRP-1 cells, dose response, cell-based, doxorubicin EC50 shift (AID 844)
# Details: for EC50: measured here: doxorubicin EC50 with compound
Structure (SMILES),fold increase in Dox EC50,EC50
CCOC(=O)c1cc(-c2ccccc2)sc1NC(=O)C(C)Sc1nnc(C)s1 (stereo not given),0.53 (inactive),2.87 µM
N#Cc1ccc(N2C(=O)[C@@H]3C(C(=O)c4ccc5ccccc5n4)=NN[C@@H]3C2=O)cc1,1.3 (inactive),7 µM
O=C(NNC(=O)c1cccnc1)Nc1cccc2ccccc12,0.66 (inactive),3.57 µM
Nc1ccc(CC2SC(=O)NC2=O)cc1 (stereo not given),1.24 (inactive),6.72 µM
Brc1ccc(CSc2ncn[nH]2)cc1,1 (inactive),5.39 µM
Cc1nnc(NC(=O)c2ccccc2Br)s1,1.05 (inactive),5.69 µM
O=C(NC(=S)Nc1ccccc1N1CCOCC1)c1ccc(-c2cc(Cl)ccc2Cl)o1,1 (inactive),5.42 µM
Cc1cc2n(n1)C(c1ccccc1)CC(c1ccc(Br)cc1)=N2 (stereo not given),0.76 (inactive),4.12 µM
Cc1ccc(C(c2sc3ncnn3c2O)N2CCC(C)CC2)cc1 (stereo not given),0.72 (inactive),3.87 µM
O=c1cc(CNc2ccc(Br)cc2)nc2sccn12,0.99 (inactive),5.37 µM
Cc1noc(/C=C/N(C)C)c1S(=O)(=O)N1CCCC(C(=O)NCc2ccc(F)cc2)C1 (stereo not given),1.15 (inactive),6.2 µM
CCCC(=O)NC(=S)Nc1ccc(C(C)=O)cc1,0.46 (inactive),2.48 µM
O=C(Nc1nc(-c2cccs2)c(-c2cccs2)s1)C1(c2ccccc2)CC1,0.66 (inactive),3.58 µM
Cc1nnc(NC(=O)C(C)Oc2ccc3c(C)cc(=O)oc3c2)s1 (stereo not given),1.29 (inactive),6.99 µM
Cc1ccc(/C=N/NC(=O)CSCc2ccc(Cl)cc2)cc1,1.19 (inactive),6.44 µM
N#Cc1c(-c2ccco2)nc(SCC(=O)Nc2cccc(Cl)c2)[nH]c1=O,1.33 (inactive),7.17 µM
CC(C)(C)NC(=O)c1cccc(NC(=O)Cc2ccc(Br)cc2)c1,0.97 (inactive),5.23 µM
Cc1ccc(-n2c(C)nnc2SCC(=O)Nc2ccccc2)cc1,1 (inactive),5.41 µM
c1ccc(C(c2ccccc2)N2CCN(c3nc4ccccc4n4cnnc34)CC2)cc1,0.81 (inactive),4.39 µM
Cc1ccc(C)c(N2CCN(C(=O)c3ccc4nc(-c5ccco5)c(-c5ccco5)nc4c3)CC2)c1,0.79 (inactive),4.25 µM
CC(=O)Nc1nc(C)c(Oc2ccc(Cl)cc2Cl)c(=O)[nH]1,0.74 (inactive),4.01 µM
Cc1cc2nc(-c3cccc(NC(=O)c4ccc(Br)o4)c3C)oc2cc1C,1.03 (inactive),5.56 µM
Cc1ccc2nc(Nc3nc(CSc4nc5ccccc5s4)cc(=O)[nH]3)nc(C)c2c1,1.08 (inactive),5.81 µM
O=c1oc(-c2cc3ccccc3o2)nc2sc3c(c12)CCCC3,1.17 (inactive),6.32 µM
CCn1c(CNC(=O)COc2ccc(C(C)C)cc2)nnc1SCC(=O)Nc1ccccc1C(C)C,1.04 (inactive),5.63 µM
CC(=O)c1ccc(NC(=O)CN2C(=O)/C(=C/C(C)=C/c3ccccc3)SC2=S)cc1,0.62 (inactive),3.36 µM
CC(OC(=O)c1snc(C(=O)NC2CCCCC2)c1N)C(=O)NC(C)(C)C (stereo not given),1.1 (inactive),5.93 µM
O=C1Nc2ccccc2CCC1Sc1nnc(-c2ccc(Cl)cc2)s1 (stereo not given),1.32 (inactive),7.13 µM
CCOC(=O)CCCCC(=O)c1[nH]c(=O)[nH]c1CSc1nc(-c2ccccc2)c(C#N)c(=O)[nH]1,1.22 (inactive),6.57 µM
COc1ccc(CNc2nc(NCc3ccc(OC)cc3)n(S(C)(=O)=O)n2)cc1,1.07 (inactive),5.78 µM
